Key:
WT HCT116 = test: Cell viability by CCK-8 assay, WT HCT116; assay type: cell-based
Procedure: WT/ATG4B KO HCT116, WT/ATG4B KO SW620 and WT/ATG4B KO RKO cells were seeded in 96-well plate at 1000–1500 cells per well for cell viability assay, and seed in 6-well plate at 1 × 10^5 cells per well for cell number counting. After 12 h, the indicated drugs were added to the medium and cultured for another 96 h. Total viable cell numbers were counted by a cell counter (BioRAD), and cell viability was determined by cell-count-8 assay kit (CCK-8, Bimake, B34304) according to the manufacturer’s protocol.

[1] = molecular target: T1, ATG4B (cell lysates from ATG4B-Flag 293 T) (Homo sapiens, UniProt Q9Y4P1); test: In vitro cleavage assay of LC3B-GST with ATG4B-overexpressing cell lysates; assay type: biochemical; conditions: compounds 10 μM, 30 min at 37 °C
T1 construct: expressed in transfected cells; host or cells: 293T (ATG4B-Flag 293 T line)
Procedure: A, B Cell lysates (1.5 μg) from ATG4B-Flag 293 T were incubated with different compounds (10 μM) for 30 min at 37 °C, then recombinant LC3B-GST (3 μg) were added up to 20 μl and inhibitions were detected by SDS-PAGE and CBB staining (A). B Statistical chart of gel results of three repeated experiments. Ebselen was abbreviated as Ebs, the same below. CON as control without lysate, NC as negative control without compound.

HCT116 cells = test: Long-lived protein degradation assay; assay type: cell-based; conditions: 10 μM Ebselen, 2 μM Torin 1, 12 h
Procedure: Long-lived protein degradation assay was performed referring to the reported protocol. In brief, HCT116 cells were seeded in 6-well plates and cultured overnight, and then incubated with L-methionine-free DMEM (Thermo Fisher Scientific, 21,013,024) supplemented with 10% dialyzed FBS (Biological Industries, 2,148,391) for 30 min at 37℃ for depleting the methionine reserve. Subsequently, the cells were incubated with medium containing 50 μM AHA (MCE, HY-140346A) for 18 h to label AHA on proteins. After 2 h incubation with 10 × L-methionine to chase out the short-lived AHA-labeled proteins, cells were treated with compounds as indicated in regular medium for 12 h. Then the cells were harvested, fixed and permeabilized sequentially until they were incubated in the click reaction master mix (50 μM TAMRA alkyne [AAT Bioquest, AAT-487], 1 mM TCEP [MCE, HY-W011500], 100 μM TBTA [GLPBIO, GC45003], 1 mM CuSO4 [Sangon Biotech, C3008] in PBS) in the dark for 2 h. Finally, cells were washed and suspended in 500 μl PBS and analyzed by flow cytometry (BECKMAN, CytoFLEX S).

ATG4B = molecular target: T2, ATG4B (Homo sapiens, UniProt Q9Y4P1); test: FRET-based assay for ATG4B activity; assay type: biochemical
T2 construct: 6xHis; made in house; host or cells: E. coli BL21(DE3)
T2 sequence (Q9Y4P1 1-393): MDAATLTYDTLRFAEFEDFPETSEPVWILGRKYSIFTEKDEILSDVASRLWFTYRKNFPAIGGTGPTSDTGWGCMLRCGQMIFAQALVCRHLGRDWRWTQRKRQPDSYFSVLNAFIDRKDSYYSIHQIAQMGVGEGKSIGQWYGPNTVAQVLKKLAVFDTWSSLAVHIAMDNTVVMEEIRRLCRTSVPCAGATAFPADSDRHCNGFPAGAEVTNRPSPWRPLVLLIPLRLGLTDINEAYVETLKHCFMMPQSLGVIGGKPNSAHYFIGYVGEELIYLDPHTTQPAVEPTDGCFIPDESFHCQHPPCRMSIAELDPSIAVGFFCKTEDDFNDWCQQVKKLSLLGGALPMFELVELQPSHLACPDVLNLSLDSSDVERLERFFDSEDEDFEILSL
Procedure: FRET-based assay for ATG4B or ATG4A activity was operated as previously described [5, 17]. Briefly, Recombinant protein ATG4B (0.75 μg/ml) or ATG4A (5 μg/ml) was incubated with compounds in reaction buffer (150 mM NaCl, 20 mM Tris–HCl, pH 8.0, 0.1% CHAPS, 1 mM EDTA) at 37 °C. After 30 min, substrate FRET-GATE-16 (50 μg/ml) was added to a final volume of 50 μl. The reaction was recorded via relative fluorescence intensity ratio of 527 nm/477 nm (RFU). The final inhibition rate of the compound for ATG4 was calculated as: (RFUcompound-RFUNC)/(RFUCON-RFUNC) × 100%; respectively, NC as negative control without inhibitor, CON as control without enzymes.

WT and ATG4B KO HCT116 = test: Apoptosis detection by cleaved PARP western blot; assay type: cell-based; conditions: low or high concentrations of Ebselen; STS 2 μM; 6 h

In the case of `O=c1c2ccccc2[se]n1-c1ccccc1` [Ebselen], the “inhibition of the viability of CRC cell lines” value (WT HCT116; Fig. 6F) is reported as ~ 50%, the IC50 (WT HCT116; Homo sapiens, HCT-116, CCK-8, 96 h) is reported as 18.9 µM and the “cleavage activity of ATG4B on LC3B-GST in cell lysates” value [1] is reported as “strongly suppressed”. For the same compound, the “autophagic long-lived protein degradation induced by Torin 1” value (HCT116 cells) was “significantly inhibited”, the “inhibition rate against ATG4B WT” value (ATG4B; Ebselen 0.5 μM, 15-90 min, compared to 2CS) was “higher inhibition rate” and the IC50 (ATG4B; recombinant ATG4B 0.75 μg/ml, 30 min preincubation at 37 °C) was 0.189 µM. For the same compound, the “apoptosis (cleaved PARP)” value (WT and ATG4B KO HCT116) was “did not show any increase in apoptosis”.

From paper PMC9767854, “Discovery and mechanism studies of a novel ATG4B inhibitor Ebselen by drug repurposing and its anti-colorectal cancer effects in mice” (Cell & Bioscience, 2022)
